Results as given in patent US4866065A, “Imidazothienopyrimidines useful in psychopharmaceutical preparations” (A/S Ferrosan, priority 1987, dated 1989).

Each compound was assayed on benzodiazepine receptors (assay: in vivo displacement of 3H-flunitrazepam specific binding to brain benzodiazepine receptors in mice). Conditions: intraperitoneal, test substance 15 min before 3H-FNM i.v., sacrificed 20 min after 3H-FNM, forebrain.
Parameters: species or system mice (female, NMR)
Source text: The pharmaceutical properties of the compounds of the invention can be illustrated by determining their capability for displacing radioactive labelled flunitrazepam from benzodiazepine receptors.
The displacement activity of the compounds of the invention may be found by determining the ED50 value. The ED50 value represents the dose (mg/kg) of a test substance which causes the specific binding of flunitrazepam to benzodiazepine receptors in a living brain to be reduced to 50% of the oontrol value.
Such an in vivo test is carried out as follows:
Principle. Twenty minutes after a dose of ^3 H-flunitrazepam (^3 H-FNM) (200 μCi/kg, i.v.) the amount of specific ^3 H-FNM binding to brain benzodiazepine receptors has reached its maximal value.
Test procedure. Suspensions of test substances (2 mg/ml) are prepared in 5% Duphasol-X (TM Duphar, castor oil-ethylene oxide derivative for emulsifying and solubilizing Oil and other water-insoluble substances) by sonification for 10 min using a Branson B15 microtip ultrasonifier (setting 7). Groups of three mice (female, NMR, 18-22 grams) are injected with the test substance at 100 mg/kg intraperitoneally. Fifteen minutes after test substance administration the mice are challenged with 4 μCi intravenously of ^3 H-FNM (70-90 Ci/mole) in 200 μl physiological saline. Twenty minutes after ^3 H-FNM administration mice are sacrificed by decapitation, the forebrains rapidly excised (within 30 sec) and homogenized in 12 ml of icecold 25 mM KH2 PO4, pH 7.1, using an Ultra-Turrax homogenizer fitted with an N 10 shaft. […] The amounts of radioactivity on the filters are determined by conventional scintillation counting. […]
Results. The ED50 value is determined from dose response curves. If only one dose of test substance is administered the ED50 value is calculated as follows, provided that the inhibition of specific binding is within the range of 25-75%: [formula] where Co is specific binding in controls and Cx is specific binding in mice treated with test substance.

In order of rising “ED50 (dose reducing specific binding of flunitrazepam to benzodiazepine receptors in living brain to 50% of control)” value:
1. Cn1c(=O)c2sccc2n2cnc(-c3noc(C4CC4)n3)c12 [Compound 3, 3-(5-cyclopropyl-1,2,4-oxadiazol-3-yl)-4,5-dihydro-4-methyl-5-oxo-imidazo[1,5-a]thieno[2,3-e]pyrimidine]  0.6 mg/kg
2. Cn1c(=O)c2sccc2n2cnc(-c3nc(C4CC4)no3)c12 [Compound 8, 3-(3-cyclopropyl-1,2,4-oxadiazol-5-yl)-4,5-dihydro-4-methyl-5-oxo-imidazo[1,5-a]thieno[2,3-e]pyrimidine]  0.9 mg/kg
3. Cc1noc(-c2ncn3c4ccsc4c(=O)n(C)c23)n1 [Compound 10, 4,5-dihydro-4-methyl-3-(3-methyl-1,2,4-oxadiazol-5-yl)-5-oxo-imidazo[1,5-a]thieno[2,3-e]pyrimidine]  1.8 mg/kg
